Patent US20200338125A1, “METHOD FOR EXPANSION OF LYMPHOCYTES” (LUDWIG INSTITUTE FOR CANCER RESEARCH LTD, priority 2017, published 2020)

System: TILs of patient CTE-0009
Experiment: IFNγ-ELISPOT of TILs from draining lymph nodes, patient CTE-0009
Format: cell-based, human
Settings: FIG. 5; day 14; conventional and primed cultures from draining lymph nodes
Method: Both “conventional” and “primed” TILs of patient CTE-0009 were generated from a single cell suspension of draining lymph nodes, following the methods described herein. Each culture was interrogated at day 14 by IFNγ-ELISPOT for the presence of neo-antigen T cell reactivities directed against one of the 4 predicted peptides and against the corresponding wild-type (wt) peptides. […] PHA was used at 1 μg/ml.
T cell reactivity against predicted neo-antigens was tested by IFNγ ELISpot on pre-REP TILs. Positivity was confirmed in ≥2 independent experiments.

Sequence: TPINPRRCL [wt]
- neo-antigen T cell reactivities directed against the peptide: not
